Test results taken from a melting point compilation (Tetko et al.; mined from patent text by program, amines drawn as free bases though some values may be those of a salt).

Compared with `CS(=O)(=O)c1cc(Cl)cc(-c2cccnc2-c2cccnc2)c1`, `COC(=O)CCCc1cc2nc(Cl)ccc2n1S(=O)(=O)c1cccnc1` is lower in melting point: 135 °C for the first, 119 °C for the second.

First: CC(=O)OCC1OC(n2cc(C(Br)=CI)c(=O)[nH]c2=O)CC1OC(C)=O (stereo not given)
Second: CCOC(=O)c1cc(-n2c(=O)cc[nH]c2=O)ccc1Cl
The melting point of the first is lower: 82 to 84 °C for the first, 170 to 172 °C for the second.

Compared with `O=C(O)CCc1ccc(OCCCCc2cc(-c3ccc(C(F)(F)F)cc3)no2)cc1`, `CCCCCCOc1ccc(C(=O)Nc2ccccc2Oc2cccc(OCc3nnn[nH]3)c2)cc1` is higher in melting point: 130 to 131 °C for the first, 158 to 159 °C for the second.

Compared with `O=C(CCN1CCN(c2ncc(F)cn2)CC1)Cc1ccc(F)c2ccccc12`, `O=C1c2ccccc2C(O)N1CCCN1CCN(c2ccc(F)cc2)CC1` (stereo not given) is higher in melting point: 119 to 120 °C for the first, 155 °C for the second.

First: CCCC(=O)C=CC(=O)O
Second: Cc1cccc(C(=O)C=CC(=O)O)c1
The melting point of the first is lower: 100 to 102 °C for the first, 115 to 117 °C for the second.

First: Cc1ccc2nc(-c3ccc(Cl)cc3)cc(Cl)c2c1
Second: COC(=O)c1nc(-c2ccc(Cl)cc2)cc(N(C)C)c1N
The melting point of the first is lower: 136 to 138 °C for the first, 153 to 154 °C for the second.

Compared with `CC(C)[C@@H]1COC(=O)N1C(=O)[C@@H](CC(=O)OC(C)(C)C)Cc1ccccc1`, `O=C1CC[C@@H](C(=O)N[C@@H](CSCc2ccccc2)C(=O)O)N1` is higher in melting point: 167 to 168 °C for the first, 181 to 183 °C for the second.

First: O=c1c2cc(O)ccc2oc2c(CO)ccc(NCCN3CCCC3)c12
Second: COc1ccc(Cc2oc3ccc(O)cc3c2C)cc1
The melting point of the first is higher: 186 to 190 °C for the first, 128 to 131 °C for the second.

First: O=C(NO)C(=O)c1ccc(OCCOc2ccc3ccccc3c2)s1
Second: COc1ccc(S(=O)(=O)Nc2ncnc(OCCO)c2Cc2ccccc2OC)cc1
The melting point of the first is higher: 165 to 167 °C for the first, 161 to 162 °C for the second.

First: O=C(O)CCC(=O)c1ccc(OC2CCCCC2)cc1
Second: O=C(O)C(=O)c1ccc(OCC(=O)C2CCCCCCC2)cc1
The melting point of the first is higher: 190 to 192 °C for the first, 109 to 110 °C for the second.

Compared with `C[C@@H](Nc1c(Nc2cccnc2)c(=O)c1=O)C(C)(C)C`, `CCc1cccc(C(C)C)c1N1C(=O)CCN(CC)C1=S` is lower in melting point: 283 to 285 °C for the first, 129 to 132 °C for the second.

First: CC(C)CC1(CC(=O)NO)CC(=O)N(CCc2ccccc2)C1=O (stereo not given)
Second: O=C(O)CNC(=O)C(Cc1ccccc1)P(=O)(O)O (stereo not given)
The melting point of the first is lower: 136 to 137 °C for the first, 250 °C for the second.

First: CCOC(=O)c1nc(C)n2c1CN=C(c1ccccc1F)c1cc(C#N)ccc1-2
Second: O=c1c2cc(F)c(N3CCCC3)nc2n(-c2ccccc2F)c(=O)n1OCc1ccccc1
The melting point of the first is higher: 272 to 274 °C for the first, 221 to 222 °C for the second.

First: O=S(=O)(CC1CCC1)c1nc[nH]n1
Second: CC(=O)c1cn(S(=O)(=O)c2ccccc2)c2nccc(OCC3CCCCC3)c12
The melting point of the first is lower: 125 to 134 °C for the first, 138 to 140 °C for the second.

First: CCCc1c(OCCCOc2ccc(C(=O)OCCCN(C)C)cc2Br)ccc(C(C)=O)c1O
Second: CCCCC(CC(=O)Nc1cc(C(N)=O)ccc1C(C)(C)C)c1ccc(OCCCOC)cc1OC (stereo not given)
The melting point of the first is lower: 71 to 72 °C for the first, 157 to 162 °C for the second.

Compared with `O=C(O)CCCc1cc2cc(Cl)ccc2n1S(=O)(=O)c1ccc2ncsc2c1`, `Cc1c(C(=O)CBr)ccn1S(=O)(=O)c1ccccc1` is higher in melting point: 74 to 80 °C for the first, 108 to 110 °C for the second.

First: COC(=O)C=C1CCCCC1c1cc(OC)cc(OC)c1 (stereo not given)
Second: COC(=O)C=Cc1cn(Cc2ccc(C(=O)OC(C)(C)C)cc2OC)c2cc(C(=O)NCC3CCCC3)ccc12
The melting point of the first is lower: 80 to 81 °C for the first, 163 to 164 °C for the second.

First: NC(=O)C(CCCCCOc1cccc([N+](=O)[O-])c1C=O)C1NCCc2ccccc21 (stereo not given)
Second: COc1ccccc1N1CC[N+]([O-])(CCN(C(=O)C2CCCCC2)c2ccccc2[N+](=O)[O-])CC1
The melting point of the first is lower: 99 to 100 °C for the first, 128 to 132 °C for the second.

Compared with `Cc1ccc2c(c1)SC(c1ccc(OCCCCBr)cc1)C(=O)N2C` (stereo not given), `COc1ccccc1NC(=O)c1ccc(C)cc1` is lower in melting point: 75 to 76 °C for the first, 72.5 to 74.5 °C for the second.

First: c1cnc2ccc(Cn3nnc4ccc(-n5ccnc5)nc43)cc2c1
Second: CCc1noc(-c2cn(-c3c[nH]c4ccccc34)cn2)n1
The melting point of the first is higher: 227 to 230 °C for the first, 198 to 199 °C for the second.

First: COC(=O)c1ccc(CNC(=O)c2[nH]c(-c3cccs3)cc2-c2ccc(F)cc2)nc1
Second: CCOC(=O)C1(Cc2cccnc2)CCCN(C(=O)c2ccc(Nc3nccc(Nc4ccc(F)cc4)n3)cc2)C1 (stereo not given)
The melting point of the first is higher: 174 to 176 °C for the first, 119 °C for the second.

First: COc1cccc(C=Cc2nc3c(s2)N(C(C)=O)CCC3)c1OC
Second: COc1ccc(C(=O)/C=C/c2ccc3c(c2)OCO3)c(OC)c1
The melting point of the first is higher: 185 to 187 °C for the first, 137 °C for the second.

First: CS(=O)N1CCSc2cccc(Cl)c2C1 (stereo not given)
Second: CN[C@@H]1Cc2cccc3[nH]c(=S)n(c23)C1
The melting point of the first is lower: 82 to 84 °C for the first, 210 to 213 °C for the second.

First: CCOC(=O)C(C#N)=C1CCN(c2ccc(N3C[C@H](CNC(C)=S)OC3=O)cc2F)CC1
Second: COc1ccccc1N1CCN(CCNc2c(OC)cnn(C)c2=O)CC1
The melting point of the first is higher: 182 to 185 °C for the first, 144 to 148 °C for the second.

First: O=C(O)COc1ccc(-c2nc3cnccc3[nH]2)c(O)c1
Second: COCc1c[nH]c(-c2ccc(OCC(O)CO)cc2)n1 (stereo not given)
The melting point of the first is higher: 235 °C for the first, 154 to 156 °C for the second.

Compared with `COc1cc(-c2nn(C)c(C(F)(F)F)c2Cl)c(F)cc1Cl`, `CCSNc1c(C#N)cnn1-c1c(Cl)cc(C(F)(F)F)cc1Cl` is higher in melting point: 70 to 71 °C for the first, 157 to 158 °C for the second.

First: C=Cc1nc(C(C)C)c(Sc2cc(Cl)cc(Cl)c2)n1C
Second: Cc1c(C)c(-c2cccc(CO)c2)c(C)c(C)c1O
The melting point of the first is lower: 124 to 125 °C for the first, 152 to 153 °C for the second.

Compared with `COc1ccccc1C=C1N=C(c2ccccc2)OC1=O`, `CN(c1cccc(C=C2c3ccccc3CCc3ccccc32)c1)S(C)(=O)=O` is lower in melting point: 159 to 161 °C for the first, 124 °C for the second.

First: COc1cc2c(cc1[N+](=O)[O-])NC(=O)CN(C(=O)C(F)(F)F)C2
Second: COC(=O)c1cc([N+](=O)[O-])c(-c2ccccc2)c([N+](=O)[O-])c1
The melting point of the first is higher: 204 to 205 °C for the first, 148 °C for the second.

First: CCCOc1ccc(S(=O)(=O)NCC2(NCC)CCCCCC2)cc1-c1nc2c([nH]1)c1nncn1c(=O)n2CCC
Second: CCn1ncc2c3c(NCc4ccc(OC)c(Cl)c4)nnc(N4CCC(O)CC4)c3cnc21
The melting point of the first is higher: 203 °C for the first, 109 to 110 °C for the second.

Compared with `CNC(=O)c1cc(C(=O)O)c(Nc2ccc(I)cc2C)c(F)c1F`, `O=C(NOCCO)c1cc(Cl)c(F)c(F)c1Nc1ccc(I)cc1` is lower in melting point: 254 to 259 °C for the first, 174 to 176 °C for the second.

Compared with `CN(C)S(=O)(=O)c1ccc2c3c(cccc13)C(NCCCn1ccnc1)=N2`, `O=C1c2nccc(Cl)c2C(=O)c2c(-c3ccccc3NC(=O)C(F)(F)F)ccnc21` is lower in melting point: 199 to 201 °C for the first, 152 °C for the second.

Compared with `C1=C(c2c[nH]c3ccccc23)CCN(CC2COc3ccc4ncncc4c3O2)C1` (stereo not given), `Nc1ncnc2c1c(-c1ccc(Oc3ccccc3)cc1)cn2C1CCOCC1` is lower in melting point: 204 to 207 °C for the first, 193 to 194 °C for the second.

First: CCCOC1CC2(C)C(CCC3C2CCC2(C)C(C(=O)CSCCCO)CCC32)CC1O (stereo not given)
Second: CC1(C)CC(NCC(O)COc2ccc(C(=O)c3ccccc3)c(O)c2)CC(C)(C)N1OC1CCCCC1 (stereo not given)
The melting point of the first is higher: 133 to 136 °C for the first, 118 to 121 °C for the second.

Compared with `O=C1Nc2ccccc2SC1CCN1C=CN(c2ccc(F)cc2)C=C1` (stereo not given), `CN1CCC(C2(O)c3ccccc3C=Cc3ccc(C#N)cc32)CC1` (stereo not given) is higher in melting point: 158 to 159 °C for the first, 219 to 221 °C for the second.

Compared with `Cn1cc(C(=O)O)c(=O)c2cc(F)c(F)c(F)c21`, `COc1cc(C(=O)C#CC(=O)N(C)C)cc(OC)c1OC` is lower in melting point: 255 to 258 °C for the first, 118 to 119 °C for the second.

First: CC(C)(C)OC(=O)N[C@H](CCOc1ccc(C#N)cc1)C(=O)O
Second: CC(F)(C(=O)O)c1ccc(OS(=O)(=O)C(F)(F)F)cc1 (stereo not given)
The melting point of the first is higher: 132 to 146 °C for the first, 91 to 94 °C for the second.

First: CCN(CC)c1cc(-c2ccco2)ncn1
Second: Cc1noc(CC(=O)N(N)C(=O)c2ccco2)n1
The melting point of the first is higher: 179 to 180 °C for the first, 169 to 171 °C for the second.

Compared with `CSc1ccc(-c2c(NN)nc(NN)nc2-c2ccccc2)cc1`, `COc1cc2nc(SCc3ccccc3)nn2c(Cl)n1` is lower in melting point: 207 to 210 °C for the first, 140 to 141 °C for the second.

First: Cc1cc(C)cc(-c2cc(O)c(SCCc3ccccc3)c(=O)o2)c1
Second: Cc1cc(C2=c3ccc(=C4C(=O)c5ccccc5C4=O)cc3OC2=O)cc(C)c1N
The melting point of the first is lower: 155 to 157 °C for the first, > 250 °C for the second.

First: CN(C(=O)OC(C)(C)C)c1cc(Oc2ccc(OCc3ccccc3)cc2)ccc1[N+](=O)[O-]
Second: CCC1(CC)c2cc(-c3nc4ccccc4s3)ccc2-c2ccc(N(c3cccc(Oc4ccc([N+](=O)[O-])cc4)c3)c3cccc(Oc4ccc([N+](=O)[O-])cc4)c3)cc21
The melting point of the first is lower: 108 to 110 °C for the first, 200 to 201 °C for the second.

Compared with `OC1CCc2cc(Cl)c(Cl)cc21` (stereo not given), `C#Cc1ccc2c(c1)[C@@H](N)[C@H](O)CO2` (relative stereo) is higher in melting point: 84 °C for the first, 132 to 134 °C for the second.

First: CC(=O)Oc1ccc(C(=O)c2cccc(C(=O)O)c2)cc1
Second: CCOC(=O)Cc1c(C(=O)OCC)c(C)c(C(=O)c2ccc(C)cc2)n1C
The melting point of the first is higher: 190 to 193 °C for the first, 108 to 111 °C for the second.

Compared with `Cc1ccc(CC(N)=O)c(C)c1OC(F)F`, `CCOC(=O)CSc1ccc2nncn2n1` is lower in melting point: 136 to 137 °C for the first, 130 to 133 °C for the second.

First: Cc1cccc(CSCCNC(=O)c2c(Cl)cccc2Cl)c1
Second: CSC1C(O)C(CO)OC1n1ccc(NC(=O)c2ccccc2)nc1=O (stereo not given)
The melting point of the first is lower: 56 to 57 °C for the first, 193 to 194 °C for the second.

First: O=C(O)c1cc(C(c2ccccc2)(c2ccccc2)c2ccccc2)ccc1O
Second: CCCCCCCCCCCCCCCCCCOc1ccc(OCc2ccccc2)c(C(=O)O)c1
The melting point of the first is higher: 234 to 237 °C for the first, 80 to 81 °C for the second.

Compared with `Cc1c(C)c2c(c(C)c1NCc1cccs1)C(c1ccc(C(C)C)cc1)C(C)(C)O2` (stereo not given), `CC(C)(C)NCC(O)COc1ccc(-c2noc3sccc23)cc1` (stereo not given) is higher in melting point: 101 to 103 °C for the first, 118 °C for the second.

Compared with `Cc1ccc(C2(Br)C(=O)NC(=O)NC2=O)cc1`, `CCCCCCCCCC(=O)Oc1ccc(/C=C2/C(=O)Nc3cc(OC)c(OC)cc32)cc1` is lower in melting point: 210 to 213 °C for the first, 138 to 140 °C for the second.

Compared with `CCCCCCCCC#CCC#CCC#CCCCC(=O)Nc1ccc(O)cc1`, `CCCCc1ccc(NC=O)c([N+](=O)[O-])c1` is lower in melting point: 121 °C for the first, 72 to 73 °C for the second.

First: COc1ccc(OC)c2c1C[C@](O)(C(C)=O)CC21SCCS1
Second: CCOC(=O)c1ccc2nccn2c1
The melting point of the first is higher: 175 to 178 °C for the first, 93 to 94 °C for the second.
